Relative viability data for 4 cell lines are collected here from the supplement of paper PMC10307832.

Common to all, as to assay: relative viability (nuclei count vs DMSO), 5 days (fraction); higher = more cells survive
Compound in test [1]: Cn1c(Nc2ccc(C(F)(F)F)cc2)nc2cc(Oc3ccnc(-c4ncc(C(F)(F)F)[nH]4)c3)ccc21 [RAF265] + COc1cc2c(Oc3ccc(NC(=O)C4(C(=O)Nc5ccc(F)cc5)CC4)cc3F)ccnc2cc1OCCCN1CCOCC1 [Foretinib] (partner 0.25 µM)
A digest of the protocol: (§1)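 Relative viability is defined as nuclei in treated wells over nuclei in vehicle wells. Duplicate plates were run and medians reported. Lung cancer cell lines in 1536-well plates were dosed by pin tool one day after seeding, with one drug or with a fixed anchor-drug dose plus five library-drug doses (not always all listed) in √10 steps, and nuclei were counted after 5 days.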

Compound in test [2]: C1=CC=C2C(=C1)C=CC(=C2SSC3=C(C=CC4=CC=CC=C43)O)O [IPA-3] + COc1cccc2cc(-c3nc([C@H]4CC[C@H](C(=O)O)CC4)n4ncnc(N)c34)[nH]c12 [OSI-027] (partner 0.5 µM)
A digest of the protocol: as §1

Compound in test [3]: C1=CC=C2C(=C1)C=CC(=C2SSC3=C(C=CC4=CC=CC=C43)O)O [IPA-3] + Nc1ncn([C@H]2C[C@H](O)[C@@H](CO)O2)c(=O)n1 [Decitabine] (partner 2 µM)
A digest of the protocol:
as §1

Compound in test [4]: Cc1ccc(-n2nc(C(C)(C)C)cc2NC(=O)Nc2ccc(OCCN3CCOCC3)c3ccccc23)cc1 [Doramapimod] + Nc1ncn([C@H]2C[C@H](O)[C@@H](CO)O2)c(=O)n1 [Decitabine] (partner 2 µM)
The gist of the method: as §1

For the cell line NCI-H1666, the relative viability in test [1] (first compound 0.01 µM) came out at 1.11; in test [1] (first compound 0.03162 µM) it was 0.936; in test [1] (first compound 0.1 µM), 0.985; in test [1] (first compound 0.3162 µM) it was 1.01; in test [1] (first compound 1 µM), 0.81; in test [2] (first compound 0.2 µM), 0.976. The relative viability in test [2] (first compound 0.6325 µM) was determined as 0.839; in test [2] (first compound 2 µM), 0.828; in test [2] (first compound 6.325 µM) it was 0.743; in test [2] (first compound 20 µM), 0.87; in test [3] (first compound 0.2 µM), 0.661; in test [3] (first compound 0.6325 µM), 0.759. Moreover, the relative viability is 0.737 in test [3] (first compound 2 µM); 0.868 in test [3] (first compound 6.325 µM); 0.706 in test [3] (first compound 20 µM); 0.768 in test [4] (first compound 0.02 µM); 0.792 in test [4] (first compound 0.06325 µM); 0.83 in test [4] (first compound 0.2 µM). Besides, the relative viability in test [4] (first compound 0.6325 µM) is 0.659; in test [4] (first compound 2 µM) it was 0.755.
As to NCI-H1734, the relative viability in test [1] (first compound 0.01 µM) is 0.858; in test [1] (first compound 0.03162 µM), 0.701; in test [1] (first compound 0.1 µM), 0.627; in test [1] (first compound 0.3162 µM), 0.647; in test [1] (first compound 1 µM) it was 0.454; in test [2] (first compound 0.2 µM), 0.619. Further, the relative viability amounted to 0.632 in test [2] (first compound 0.6325 µM); 0.507 in test [2] (first compound 2 µM); 0.612 in test [2] (first compound 6.325 µM); 0.56 in test [2] (first compound 20 µM); 0.59 in test [3] (first compound 0.2 µM); 0.457 in test [3] (first compound 0.6325 µM). In addition, the relative viability in test [3] (first compound 2 µM) was found to be 0.469; in test [3] (first compound 6.325 µM), 0.44; in test [3] (first compound 20 µM) it was 0.436; in test [4] (first compound 0.02 µM), 0.476; in test [4] (first compound 0.06325 µM), 0.47; in test [4] (first compound 0.2 µM) it was 0.489. Also, the results for the relative viability in test [4] (first compound 0.6325 µM) and in test [4] (first compound 2 µM) were 0.51 and 0.363, respectively.
For the cell line NCI-H1755, the relative viability in test [1] (first compound 0.01 µM) came to 0.951; in test [1] (first compound 0.03162 µM), 0.884; in test [1] (first compound 0.1 µM) it was 0.926; in test [1] (first compound 0.3162 µM) it was 0.727; in test [1] (first compound 1 µM), 0.568; in test [2] (first compound 0.2 µM), 0.831. The relative viability in test [2] (first compound 0.6325 µM) is 0.616; in test [2] (first compound 2 µM) it was 0.688; in test [2] (first compound 6.325 µM), 0.607; in test [2] (first compound 20 µM) it was 0.702; in test [3] (first compound 0.2 µM) it was 0.752; in test [3] (first compound 0.6325 µM), 0.69. Moreover, the relative viability in test [3] (first compound 2 µM) was found to be 0.651; in test [3] (first compound 6.325 µM) it was 0.699; in test [3] (first compound 20 µM), 0.716; in test [4] (first compound 0.02 µM), 0.778; in test [4] (first compound 0.06325 µM), 0.753; in test [4] (first compound 0.2 µM), 0.711. Further, the relative viability in test [4] (first compound 0.6325 µM) is 0.666; in test [4] (first compound 2 µM) it was 0.706.
Take NCI-H1793: the relative viability in test [1] (first compound 0.01 µM) stood at 0.632; in test [1] (first compound 0.03162 µM), 0.616; in test [1] (first compound 0.1 µM), 0.624; in test [1] (first compound 1 µM), 0.261; in test [2] (first compound 0.2 µM), 0.286; in test [2] (first compound 0.6325 µM) it was 0.136. Moreover, the relative viability in test [2] (first compound 2 µM) amounted to 0.291; in test [2] (first compound 6.325 µM) it was 0.314; in test [2] (first compound 20 µM), 0.323; in test [3] (first compound 0.2 µM), 0.545; in test [3] (first compound 0.6325 µM), 0.495; in test [3] (first compound 2 µM), 0.566. Also, the relative viability in test [3] (first compound 6.325 µM) worked out at 0.442; in test [3] (first compound 20 µM) it was 0.529; in test [4] (first compound 0.02 µM), 0.523; in test [4] (first compound 0.06325 µM), 0.449; in test [4] (first compound 0.2 µM) it was 0.526; in test [4] (first compound 0.6325 µM), 0.483. Besides, in test [4] (first compound 2 µM), the relative viability is 0.392.
